Test results reported in patent publication US7999119B2, “Compounds having CRTH2 antagonist activity” (Oxagen Limited, priority 2006, dated 2011).
Several values for one entry are separate records, joined by “and”; a condition that tells them apart may be missing. Equal entries are not always repeated. Where two headings read alike, the source gives them in different places.

Assays:
[1] = test system: PGD2 induced eosinophil shape change; assay: Human whole blood eosinophil shape change assay; type: cell-based; conditions: Homo sapiens, Eosinophil
How it was run: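 Compound added to human whole blood and incubated 15 min at 37° C., 5% CO2, before cell fixation and red-cell lysis. Leukocytes analysed by FACS, eosinophils gated by autofluorescence, 2000 events per sample, triplicate; read-out is inhibition of PGD2-induced eosinophil shape change.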

[2] = Pharmacokinetics following oral administration in the rat; type: in vivo
Protocol: Investigation of Pharmacokinetics of Compounds of General Formula (I) Following Oral Administration in the Rat
Rats were weighed on the day of dosing.
The test material was prepared as a 0.3 mg/mL suspension in 1% carboxy-methyl-cellulose (CMC).
Three groups of 3 rats were dosed as follows:
Doses were administered as a single oral dose using a gavage tube at a constant dose volume of 10 mL/kg.
At each sampling time point blood samples (approximately 0.3 mL) was taken from a catheter inserted into a lateral tail vein prior to the start of the experiment. The final blood sample (approximately 2 mL) from each animal was taken by cardiac puncture under isoflurane anaesthesia following which the animal was killed by exsanguination. Blood samples were taken into individual heparinised containers. Blood samples were collected at the following times post-dose:
Following collection, the blood samples were centrifuged (approximately 10,000×g, 2 min at 4° C.) and the plasma stored as one aliquot at approximately −20° C. pending analysis of drug concentrations by LC-MS/MS.
The plasma samples were analysed for test material concentrations at BioDynamics using an LC-MS/MS method developed at BioDynamics.

[3] = test system: DK-PGD2-induced blood eosinophilia; assay: Inhibition of DK-PGD2-induced blood eosinophilia in rats; type: in vivo, rat; conditions: female rats, oral dosing 30 min before 10 μg DK-PGD2 intracardiac; ED50 from dose-response curve; the values are: ED50
Protocol: Evaluation of Compounds of General Formula (I) as Inhibitors of 13,14-dihydro-15-keto prostaglandin D2 (DK-PGD2)-Induced Blood Eosinophilia in Rats
The test compound was dissolved in DMSO and diluted with water to give a final dosing volume of 2 ml/kg.
Female rats (175-250 g; UH colony) were dosed orally with test compound (or vehicle).
30 min after dosing all animals were anaesthetised with isoflurane.
Following induction of anaesthesia, animals receive an intracardiac injection of 10 μg DK-PGD2 in 0.3 ml heparinised (10 U/ml) saline. Control animals received an injection of 0.3 ml heparinised saline.
60 min after the intracardiac injection, animals were injected with an overdose of pentobarbitone sodium and a blood sample was taken (into heparin) by cardiac puncture while the rat was anaesthetised but not dead.
An aliquot of blood (100 μl) was added to Turk's solution and the total leukocyte count determined with a haemocytometer.
A further aliquot of blood (500 μl) was mixed with an equal volume of 4% Dextran (mw 500,000) and the erythrocytes allowed to settle. A cytospin preparation was made from the resulting leukocyte rich fraction.
Cytospin preparations were fixed with methanol (5 min) and stained with May-Grunwald (5 min) and Giemsa (15 min) stains. Finally cytospins were washed in phosphate buffer (pH6.8) and air dried.
Differential leukocyte counts were obtained from the cytospin preparations.
Blood eosinophil numbers were determined from the total leukocyte count and the percentage eosinophils (differential count).
Because it was impractical to generate sufficient data in any given experiment, data were obtained over a number of replicate experiments. Data from these replicate experiments were pooled, to provide at least 5 animals in each group and a dose-response curve fitted following a significance test (Mann Whitney) to determine whether or not DK-PGD2 caused a significant increase in blood eosinophils (GraphPad, Prism). A difference between groups was taken to be significant when P<0.05. ED50 values were calculated from the dose-response curve.

[4] = rat, 3 mg/kg p.o, individual male animals, 3 mg/kg

Q: Which IC50 ([1]; 10 nm PGD2-induced eosinophil shape change, human whole blood, read-out: Whole Blood IC50) does the source give for `Cc1c(Cc2ccccc2S(=O)(=O)c2ccc(F)cc2)c2cc(F)ccc2n1CC(=O)O` [Compound 3, 2-(5-fluoro-3-(2-(4-fluorophenylsulfonyl)benzyl)-2-methyl-1H-indol-1-yl)acetic acid] here?
A: The IC50 was 6 nM.

Q: And the IC50 ([1]; Table 12 summary of whole blood eosinophil shape change IC50, read-out: IC50 (μmol))?
A: The IC50 was 6 nM.

Q: What about the IC50 ([1]; whole blood eosinophil shape change IC50 converted to ng/mL, read-out: IC50) of the same compound?
A: Its IC50 is 2.7 ng/mL.

Q: And the concentration at 0.25 h ([2]; male, rat, plasma, po, 3 mg/kg, rat, 3 mg/kg oral, 0.25 h, individual male animals, read-out: Concentration in Blood)?
A: The concentration at 0.25 h was 836 ng/mL.

Q: And the concentration at 0.25 h ([2]; male, rat, plasma, po, 3 mg/kg, rat, 3 mg/kg oral, 0.25 h, mean, read-out: Concentration in Blood, Mean)?
A: Its concentration at 0.25 h is 1100 ng/mL.

Q: And the concentration at 0.5 h ([2]; male, rat, plasma, po, 3 mg/kg, rat, 3 mg/kg oral, 0.5 h, individual male animals, read-out: Concentration in Blood)?
A: The concentration at 0.5 h was 2060 ng/mL.

Q: And the concentration at 0.5 h ([2]; male, rat, plasma, po, 3 mg/kg, rat, 3 mg/kg oral, 0.5 h, mean, read-out: Concentration in Blood, Mean)?
A: The concentration at 0.5 h was 2250 ng/mL.

Q: And the concentration at 1 h ([2]; male, rat, plasma, po, 3 mg/kg, rat, 3 mg/kg oral, 1 h, individual male animals, read-out: Concentration in Blood)?
A: Its concentration at 1 h is 2490 ng/mL.

Q: And the concentration at 1 h ([2]; male, rat, plasma, po, 3 mg/kg, rat, 3 mg/kg oral, 1 h, mean, read-out: Concentration in Blood, Mean)?
A: Its concentration at 1 h is 3140 ng/mL.

Q: What about the concentration at 2 h ([2]; male, rat, plasma, po, 3 mg/kg, rat, 3 mg/kg oral, 2 h, individual male animals, read-out: Concentration in Blood) of the same compound?
A: Its concentration at 2 h is 4320 ng/mL.

Q: And the concentration at 2 h ([2]; male, rat, plasma, po, 3 mg/kg, rat, 3 mg/kg oral, 2 h, mean, read-out: Concentration in Blood, Mean)?
A: The concentration at 2 h was 4080 ng/mL.

Q: And the concentration at 4 h ([2]; male, rat, plasma, po, 3 mg/kg, rat, 3 mg/kg oral, 4 h, individual male animals, read-out: Concentration in Blood)?
A: Its concentration at 4 h is 3130 ng/mL.

Q: What about the concentration at 4 h ([2]; male, rat, plasma, po, 3 mg/kg, rat, 3 mg/kg oral, 4 h, mean, read-out: Concentration in Blood, Mean) of the same compound?
A: Its concentration at 4 h is 2400 ng/mL.

Q: And the concentration at 6 h ([2]; male, rat, plasma, po, 3 mg/kg, rat, 3 mg/kg oral, 6 h, individual male animals, read-out: Concentration in Blood)?
A: Its concentration at 6 h is 1330 ng/mL.

Q: And the concentration at 6 h ([2]; male, rat, plasma, po, 3 mg/kg, rat, 3 mg/kg oral, 6 h, mean, read-out: Concentration in Blood, Mean)?
A: Its concentration at 6 h is 1140 ng/mL.

Q: And the concentration at 8 h ([2]; male, rat, plasma, po, 3 mg/kg, rat, 3 mg/kg oral, 8 h, individual male animals, read-out: Concentration in Blood)?
A: The concentration at 8 h was 1160 ng/mL.

Q: And the concentration at 8 h ([2]; male, rat, plasma, po, 3 mg/kg, rat, 3 mg/kg oral, 8 h, mean, read-out: Concentration in Blood, Mean)?
A: Its concentration at 8 h is 847 ng/mL.

Q: And the concentration at 12 h ([2]; male, rat, plasma, po, 3 mg/kg, rat, 3 mg/kg oral, 12 h, mean, read-out: Concentration in Blood, Mean)?
A: Its concentration at 12 h is 277 ng/mL.

Q: And the concentration at 24 h ([2]; male, rat, plasma, po, 3 mg/kg, rat, 3 mg/kg oral, 24 h, mean, read-out: Concentration in Blood, Mean)?
A: The concentration at 24 h was 16.1 ng/mL.

Q: What about the AUC(0-inf) ([2]; male, rat, plasma, po, 3 mg/kg, rat, 3 mg/kg p.o, individual male animals, read-out: AUCinf) of the same compound?
A: Its AUC(0-inf) is 24400 ng·h/mL.

Q: And the Cmax ([2]; male, rat, plasma, po, 3 mg/kg, rat, 3 mg/kg p.o, individual male animals, read-out: Cmax)?
A: The Cmax was 4320 ng/mL.

Q: And the Tmax ([2]; male, rat, plasma, po, 3 mg/kg, rat, 3 mg/kg p.o, individual male animals, read-out: Tmax)?
A: The Tmax was 2 h.

Q: What about the half-life ([2]; male, rat, plasma, po, 3 mg/kg, rat, 3 mg/kg p.o, individual male animals, read-out: T½ (converted)) of the same compound?
A: Its half-life is 3.26 h.

Q: And the AUC(0-inf) ([2]; male, rat, plasma, po, 3 mg/kg, rat, 3 mg/kg p.o, mean, summary without unit (Table 12), read-out: AUCinf (mean))?
A: Its AUC(0-inf) is 21100 ng·h/mL.

Q: And the Cmax ([2]; male, rat, plasma, po, 3 mg/kg, rat, 3 mg/kg p.o, mean, summary without unit (Table 12), read-out: Cmax (mean))?
A: Its Cmax is 4080 ng/mL.

Q: What about the AUC(0-inf) ([2]; male, rat, plasma, po, 3 mg/kg, rat, 3 mg/kg p.o, mean, read-out: AUCinf, Mean) of the same compound?
A: Its AUC(0-inf) is 21100 ng·h/mL.

Q: What about the Cmax ([2]; male, rat, plasma, po, 3 mg/kg, rat, 3 mg/kg p.o, mean, read-out: Cmax, Mean) of the same compound?
A: Its Cmax is 4080 ng/mL.

Q: And the Tmax ([2]; male, rat, plasma, po, 3 mg/kg, rat, 3 mg/kg p.o, mean, read-out: Tmax, Mean)?
A: The Tmax was 2 h.

Q: What about the half-life ([2]; male, rat, plasma, po, 3 mg/kg, rat, 3 mg/kg p.o, mean, read-out: T½, Mean (converted)) of the same compound?
A: The half-life was 2.8 h.

Q: What about the “Fold over IC50 at 12 h” value ([2]; mean blood concentration at 12 h (rat, 3 mg/kg p.o.) divided by whole blood IC50 in ng/ml) of the same compound?
A: Its value is 102.

Q: And the “Concentration in Blood” value ([2]; rat, 3 mg/kg oral, 0.25 h, individual male animals, 3 mg/kg)?
A: The value was 1130.7 ng/mL and 1337.2 ng/mL.

Q: And the “Concentration in Blood” value ([2]; rat, 3 mg/kg oral, 0.5 h, individual male animals, 3 mg/kg)?
A: The value was 2205.2 ng/mL and 2487.5 ng/mL.

Q: What about the “Concentration in Blood” value ([2]; rat, 3 mg/kg oral, 1 h, individual male animals, 3 mg/kg) of the same compound?
A: Its value is 3547.8 ng/mL and 3393.7 ng/mL.

Q: And the “Concentration in Blood” value ([2]; rat, 3 mg/kg oral, 2 h, individual male animals, 3 mg/kg)?
A: Its value is 3685.1 ng/mL and 4221.0 ng/mL.

Q: And the “Concentration in Blood” value ([2]; rat, 3 mg/kg oral, 4 h, individual male animals, 3 mg/kg)?
A: The value was 2023.1 ng/mL and 2053.8 ng/mL.

Q: And the “Concentration in Blood” value ([2]; rat, 3 mg/kg oral, 6 h, individual male animals, 3 mg/kg)?
A: Its value is 995.0 ng/mL and 1098.0 ng/mL.

Q: And the “Concentration in Blood” value ([2]; rat, 3 mg/kg oral, 8 h, individual male animals, 3 mg/kg)?
A: The value was 699.5 ng/mL and 678.5 ng/mL.

Q: And the “Concentration in Blood” value ([2]; rat, 3 mg/kg oral, 12 h, individual male animals, 3 mg/kg)?
A: Its value is 465.3 ng/mL and 163.3 ng/mL and 201.1 ng/mL.

Q: What about the “Concentration in Blood” value ([2]; rat, 3 mg/kg oral, 24 h, individual male animals, 3 mg/kg) of the same compound?
A: The value was 38.2 ng/mL and 0.0 ng/mL and 10.1 ng/mL.

Q: And the AUCinf [2, 4]?
A: The AUCinf was 17738 ng·h/mL and 19110 ng·h/mL.

Q: And the Cmax [2, 4]?
A: Its Cmax is 3685 ng/mL and 4221 ng/mL.

Q: And the T½ [2, 4]?
A: Its T½ is 2.26 h and 2.62 h.

Q: And the Potency in inhibition of DK-PGD2-induced blood eosinophilia [3]?
A: Its Potency in inhibition of DK-PGD2-induced blood eosinophilia is 0.01 mg/kg.
